# Results reported in ChEMBL document CHEMBL5154881, “Discovery of First-in-Class TAK1-MKK3 Protein-Protein Interaction (PPI) Inhibitor (R)-STU104 for the Treatment of Ulcerative Colitis through Modulating TNF-α Production” (J Med Chem, 2022).
# Key:
# Mus musculus [1] = assay: Anti-ulcerative colitis activity in IL-10-/- C57BL/6 mouse model of ulcerative colitis assessed as body weight recovery ratio at 10 mg/kg, IG via gavage for 8 weeks and measured everyday relative to control; assay type: functional
# Mus musculus [2] = assay: Antiinflammatory activity against IL-10-/- C57BL/6 mouse model of ulcerative colitis assessed as inhibition ratio of IL-23 mRNA expression in colon tissue at 3 mg/kg, IG via gavage and measured after 8 weeks by RT-qPCR analysis relative to control; assay type: functional; set-up: scale not given: the % may be the effect or the level left
# Mus musculus [3] = assay: Antiinflammatory activity against IL-10-/- C57BL/6 mouse model of ulcerative colitis assessed as inhibition ratio of IL-6 protein expression at 3 mg/kg, IG via gavage and measured after 8 weeks by ELISA relative to control; assay type: functional; set-up: scale not given: the % may be the effect or the level left
# [4] = Apparent volume of distribution in 12 hr starved C57 mouse at 5 mg/kg, iv measured for 0.083 to 24 hrs post-dose by LC-MS-MS analysis; assay type: ADME, organism-based; conditions: in vivo, time 0.083-24 hrs, read-out: Vz
# Mus musculus [5] = assay: Antiinflammatory activity against DSS-induced C57BL/6 mouse model of acute ulcerative colitis assessed as inhibition of IL-1beta mRNA expression in colon tissue administered intragastrically via gavage measured after 7 days by RT-qPCR analysis; assay type: functional, organism-based; conditions: route ig, time 7.0 day, DDE = dose-dependent effect
# Mus musculus [6] = assay: Anti-ulcerative colitis activity against DSS-induced ulcerative colitis C57BL/6 mouse model assessed as reduction in DAI score at 1 mg/kg, IG via gavage administered for 7 days and measured everyday (reference value: 4.0); assay type: functional; conditions: time 7 day
# Mus musculus [7] = assay: Antiinflammatory activity against IL-10-/- C57BL/6 mouse model of ulcerative colitis assessed as inhibition ratio of IL-23 mRNA expression in colon tissue at 10 mg/kg, IG via gavage and measured after 8 weeks by RT-qPCR analysis relative to control; assay type: functional; set-up: scale not given: the % may be the effect or the level left
# [8] = Mutagenicity in Salmonella typhimurium by Ames test; assay type: toxicity; conditions: salmonella enterica subsp. enterica serovar typhimurium
# Mus musculus [9] = assay: Antiinflammatory activity against DSS-induced C57BL/6 mouse model of acute ulcerative colitis assessed as reduction in serum IL-6 levels administered intragastrically via gavage measured after 7 days by ELISA; assay type: functional, organism-based; conditions: dose 1-10 mg/kg, route ig, time 7.0 day, DDE = dose-dependent effect
# P-gp (human) = assay: Apparent permeability in dog MDCK-MDR1 cells transfected with human P-gp; assay type: ADME, cell-based, Canis lupus familiaris
# Mus musculus [10] = assay: Anti-ulcerative colitis activity against DSS-induced ulcerative colitis C57BL/6 mouse model assessed as reduction in DAI recovery score ratio at 1 mg/kg, IG via gavage administered for 7 days and measured everyday relative to control; assay type: functional; set-up: scale not given: the % may be the effect or the level left; conditions: time 7 day
# Mus musculus [11] = assay: Antiinflammatory activity against IL-10-/- C57BL/6 mouse model of ulcerative colitis assessed as inhibition ratio of IL-6 mRNA expression in colon tissue at 1 mg/kg, IG via gavage and measured after 8 weeks by RT-qPCR analysis relative to control; assay type: functional; set-up: scale not given: the % may be the effect or the level left
# [12] = Inhibition of MKK3-p38-elF4E signaling pathway in mouse RAW264.7 cells assessed as inhibition of LPS-induced MKK3 phosphorylation; assay type: cell-based
# [13] = Toxicity in C57 mouse assessed as body weight loss at 50 to 500 mg/kg, po administered daily for 14 days; assay type: organism-based; conditions: in vivo, 336 h, dose 50-500 mg/kg, time 14 day
# Mus musculus [14] = assay: Antiinflammatory activity against IL-10-/- C57BL/6 mouse model of ulcerative colitis assessed as inhibition ratio of IL-6 protein expression at 10 mg/kg, IG via gavage and measured after 8 weeks by ELISA relative to control; assay type: functional; set-up: scale not given: the % may be the effect or the level left
# Mus musculus [15] = assay: Anti-ulcerative colitis activity in IL-10-/- C57BL/6 mouse model of ulcerative colitis assessed as colon length recovery ratio at 1 mg/kg, IG via gavage for 8 weeks relative to control; assay type: functional
# [16] = Cmax in 12 hr starved C57 mouse at 5 mg/kg, iv measured for 0.083 to 24 hrs post-dose by LC-MS-MS analysis; assay type: ADME, organism-based; set-up: time upper 24 hrs, time lower 0.083 hrs, dose 5 mg/kg, route iv; conditions: in vivo
# RAW264.7 [17] = assay: Inhibition of MKK3-p38-elF4E signaling pathway in mouse RAW264.7 cells assessed as inhibition of LPS-induced p38 phosphorylation treated for 1.5 hrs followed by LPS treatment for 1 hr by Western blot analysis; assay type: cell-based; conditions: dose 3.125-12.5 µmol/L, time 2.5 hrs, DDE = dose-dependent effect
# RAW264.7 [18] = assay: Inhibition of LPS-induced TNFalpha production in mouse RAW264.7 cells at 50 uM preincubated for 2 hrs followed by LPS treatment for 24 hrs by RT-qPCR analysis relative to control; assay type: functional; conditions: time 26 hrs
# Mus musculus [19] = assay: Anti-ulcerative colitis activity in IL-10-/- C57BL/6 mouse model of ulcerative colitis assessed as histopathological score recovery ratio at 10 mg/kg, IG via gavage for 8 weeks relative to control; assay type: functional
# Mus musculus [20] = assay: Antiinflammatory activity against IL-10-/- C57BL/6 mouse model of ulcerative colitis assessed as inhibition ratio of TNF-alpha protein expression at 3 mg/kg, IG via gavage and measured after 8 weeks by ELISA relative to control; assay type: functional; set-up: scale not given: the % may be the effect or the level left
# [21] = target: T1, Dual specificity mitogen-activated protein kinase kinase 3 (Homo sapiens) (UniProt P46734); assay: Binding affinity to CM5 chip immobilized human MKK3 (20 to 347 residues) expressed in Escherichia coli BL21 (DE3) assessed as association constant, Ka by surface plasmon resonance analysis
# T1 sequence (whole entry): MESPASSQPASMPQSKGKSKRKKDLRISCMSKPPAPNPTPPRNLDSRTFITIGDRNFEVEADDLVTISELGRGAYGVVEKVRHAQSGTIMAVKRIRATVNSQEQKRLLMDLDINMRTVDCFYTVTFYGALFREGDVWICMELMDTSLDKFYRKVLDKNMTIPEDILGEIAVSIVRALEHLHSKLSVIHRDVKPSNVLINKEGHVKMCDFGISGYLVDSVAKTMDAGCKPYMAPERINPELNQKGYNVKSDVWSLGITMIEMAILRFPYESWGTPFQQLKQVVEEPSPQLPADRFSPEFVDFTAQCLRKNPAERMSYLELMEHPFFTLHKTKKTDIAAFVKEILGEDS
# [22] = Metabolic stability in mouse liver microsomes assessed as intrinsic clearance; assay type: ADME, Microsome
# Mus musculus [23] = assay: Anti-ulcerative colitis activity in IL-10-/- C57BL/6 mouse model of ulcerative colitis assessed as colon length recovery ratio at 3 mg/kg, IG via gavage for 8 weeks relative to control; assay type: functional
# Mus musculus [24] = assay: Antiinflammatory activity against DSS-induced C57BL/6 mouse model of acute ulcerative colitis assessed as inhibition ratio of IL-6 mRNA expression in colon tissue at 1 mg/kg, IG via gavage measured after 7 days by RT-qPCR analysis relative to control; assay type: functional; set-up: scale not given: the % may be the effect or the level left; conditions: time 7 day
# [25] = Metabolic stability in human liver microsomes assessed as intrinsic clearance at […] measured upto 60 mins in presence of NADPH by HPLC-MS analysis; assay type: ADME, Microsome; set-up: dose or concentration left out as unconfirmed; conditions: 1 h
# [26] = Cmax in 12 hr starved C57 mouse at 30 mg/kg, po measured for 0.083 to 24 hrs post-dose by LC-MS-MS analysis; assay type: ADME, organism-based; set-up: dose 30 mg/kg, time 0.083-24 hrs, route po; conditions: in vivo
# Mus musculus [27] = assay: Antiinflammatory activity against DSS-induced C57BL/6 mouse model of acute ulcerative colitis assessed as inhibition ratio of IL-6 protein expression at 1 mg/kg, IG via gavage measured after 7 days by ELISA relative to control; assay type: functional; set-up: scale not given: the % may be the effect or the level left; conditions: time 7 day
structure (smiles),measurement,setting,value
COc1ccc([C@H]2CC(=O)c3cc(OC)cc(OC)c32)cc1,Activity,Mus musculus [1],19.4%
same,Activity,Mus musculus [2],51.7%
same,Activity,Mus musculus [3],44.5%
same,Vd,[4],7.76 L/kg
same,Activity,Mus musculus [5],Dde
same,Activity,Mus musculus [6],3.2
same,Activity,Mus musculus [7],58.2%
same,Activity,[8],Non-Toxic
same,Activity,Mus musculus [9],Dde
same,Papp,P-gp (human),23.3 ×10⁻⁶ cm/s
same,Activity,Mus musculus [10],20%
same,Activity,Mus musculus [11],26.3%
same,IC50,[12],4 µM
same,Activity,[13],Non-Toxic
same,Activity,Mus musculus [14],57.6%
same,Activity,Mus musculus [15],17.7%
same,Cmax,[16],2920 ng/mL
same,inhibition,RAW264.7 [17],Dde
same,inhibition at 50 µM,RAW264.7 [18],62.3%
same,Activity,Mus musculus [19],56.7%
same,Activity,Mus musculus [20],60.3%
same,Ka,[21],5.08 10^4/Ms
same,CLH,[22],1730.2 mL/min/g
same,Activity,Mus musculus [23],29.4%
same,Activity,Mus musculus [24],32.8%
same,CLH,[25],46 mL/min/g
same,Cmax,[26],2290 ng/mL
same,Activity,Mus musculus [27],40.4%
